These results are taken from patent US9029370B2, “Substituted benzamide derivatives” (Hoffmann-La Roche Inc., priority 2011, dated 2015).

Counter-ions that a name gives are not always drawn.

Test [1] has as its target mouse TAAR1 (Mus musculus (Mouse), UniProt Q923Y8). Description: Radioligand binding assay on mouse TAAR1. The note with it: mouse TAAR1, HEK-293 membranes; first value of the pair (before the slash); read-out: Ki (μM) mouse/rat. The method in brief:
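Membranes from HEK293 cells stably expressing mouse TAAR1, in HEPES-NaOH pH 7.4 with 0.1 mM EDTA, were incubated 1 h at 4°C with tritiated (S)-4-[(ethyl-phenyl-amino)-methyl]-4,5-dihydro-oxazol-2-ylamine and compound (10 pM–10 μM, duplicates). Nonspecific binding defined with 10 μM unlabeled ligand; bound radioactivity by filtration and scintillation counting.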

The target in test [2] is rat TAAR1 (Rattus norvegicus (Rat), UniProt Q923Y9). Description: Radioligand binding assay on rat TAAR1. To be noted: rat TAAR1, HEK-293 membranes; second value of the pair (line below); read-out: Ki (μM) mouse/rat. The method in brief: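 Membranes from HEK293 cells stably expressing rat TAAR1 were incubated 1 hr at 4 °C with ^3[H]-(S)-4-[(ethyl-phenyl-amino)-methyl]-4,5-dihydro-oxazol-2-ylamine; nonspecific binding was defined with 10 μM unlabeled ligand. Compounds were tested at 10 pM to 10 μM in duplicate. Bound radioactivity was read by filtration and scintillation counting.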
rat TAAR1, sequence (Q923Y9 whole entry): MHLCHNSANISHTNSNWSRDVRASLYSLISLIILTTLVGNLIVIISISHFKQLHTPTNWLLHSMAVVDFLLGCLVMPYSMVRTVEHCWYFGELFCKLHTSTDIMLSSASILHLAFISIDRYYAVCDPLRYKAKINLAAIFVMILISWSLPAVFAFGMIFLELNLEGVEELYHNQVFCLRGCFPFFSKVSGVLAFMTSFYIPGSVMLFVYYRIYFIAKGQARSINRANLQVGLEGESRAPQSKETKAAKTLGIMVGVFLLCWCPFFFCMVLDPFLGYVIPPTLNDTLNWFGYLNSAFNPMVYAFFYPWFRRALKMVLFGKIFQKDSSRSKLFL

mouse TAAR1, sequence (Q923Y8 whole entry): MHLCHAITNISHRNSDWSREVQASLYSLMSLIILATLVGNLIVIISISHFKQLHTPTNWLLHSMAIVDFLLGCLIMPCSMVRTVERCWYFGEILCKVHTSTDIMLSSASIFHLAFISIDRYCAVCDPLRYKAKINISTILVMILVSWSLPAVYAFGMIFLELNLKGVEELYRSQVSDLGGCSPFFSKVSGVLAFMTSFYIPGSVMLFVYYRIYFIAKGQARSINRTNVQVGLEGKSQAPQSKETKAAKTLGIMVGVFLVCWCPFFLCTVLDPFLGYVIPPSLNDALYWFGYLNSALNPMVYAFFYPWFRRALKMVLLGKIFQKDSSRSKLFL

Consider `O=C(Nc1ccc([C@H]2CNCCO2)cc1Cl)c1cnn(-c2cncc(C(F)(F)F)n2)c1` [Example 126, (S)—N-(2-Chloro-4-(morpholin-2-yl)phenyl)-1-(6-(trifluoromethyl)pyrazin-2-yl)-1H-pyrazole-4-carboxamide hydrochloride], for which the figures for the Ki in test [1] and in test [2] were 0.0202 µM and 0.0047 µM, respectively.

In the case of `COc1cc(C(=O)Nc2ccc([C@H]3CNCCO3)c(F)c2)cc(C#N)n1` [Example 107, (S)-2-Cyano-N-(3-fluoro-4-(morpholin-2-yl)phenyl)-6-methoxyisonicotinamide hydrochloride], the Ki in test [1] amounted to 0.0093 µM; in test [2], 0.0065 µM.

Consider `O=C(Nc1ccc([C@H]2CNCCO2)cc1Cl)c1ccc(Cl)cc1` [Example 34, (S)-4-Chloro-N-(2-chloro-4-(morpholin-2-yl)phenyl)benzamide], for which the Ki in test [1] came out at 0.0024 µM; in test [2], 0.0229 µM.

With `Cc1cc([C@@H]2CNCCO2)ccc1NC(=O)c1ccc(Cl)nc1` [Example 42, 6-Chloro-N—((R)-2-methyl-4-morpholin-2-yl-phenyl)-nicotinamide], the results for the Ki in test [1] and in test [2] were 0.028 µM and 3.99 µM, respectively.

Consider `Cc1cc(C(=O)Nc2ccc([C@H]3CNCCO3)cc2F)cc(C#N)n1` [Example 113, (S)-2-Cyano-N-(2-fluoro-4-(morpholin-2-yl)phenyl)-6-methylisonicotinamide hydrochloride], for which the Ki in test [1] was 0.0481 µM; in test [2], 0.0654 µM.

Take `O=C(Nc1ccc([C@@H]2CNCCO2)c(Cl)c1)c1cnn(-c2ccc(OC(F)F)cc2)c1` [Example 93, (R)—N-(3-Chloro-4-(morpholin-2-yl)phenyl)-1-(4-(difluoromethoxy)phenyl)-1H-pyrazole-4-carboxamide hydrochloride]: the Ki came to 0.0005 µM in test [1] and 0.0012 µM in test [2].

As to `O=C(Nc1ccc([C@H]2CNCCO2)cc1F)c1cn(-c2ccc(OC(F)F)cc2)nn1` [Example 104, (S)-1-(4-(Difluoromethoxy)phenyl)-N-(2-fluoro-4-(morpholin-2-yl)phenyl)-1H-1,2,3-triazole-4-carboxamide], the Ki in test [1] amounted to 0.0019 µM; in test [2], 0.034 µM.

`O=C(Nc1ccc([C@@H]2CNCCO2)cc1F)c1cnn(-c2ccc(F)cc2)c1` [Example 21, (R)—N-(2-fluoro-4-(morpholin-2-yl)phenyl)-1-(4-fluorophenyl)-1H-pyrazole-4-carboxamide]: the Ki in test [1] was found to be 0.0032 µM; in test [2] it was 0.0022 µM.

On to `Cn1nc(-c2ccccc2)cc1C(=O)Nc1ccc([C@H]2CNCCO2)cc1F` [Example 17, 2-Methyl-5-phenyl-2H-pyrazole-3-carboxylic acid ((S)-2-fluoro-4-morpholin-2-yl-phenyl)-amide], for which the results for the Ki in test [1] and in test [2] were 0.0151 µM and 0.0128 µM, respectively.

`O=C(Nc1ccc([C@@H]2CNCCO2)cc1F)c1n[nH]c2cc(F)ccc12` [Example 1, 6-Fluoro-1H-indazole-3-carboxylic acid ((R)-2-fluoro-4-morpholin-2-yl-phenyl)-amide]: the Ki in test [1] came out at 0.001 µM; in test [2] it was 0.0051 µM.

As for `O=C(Nc1ccc([C@H]2CNCCO2)c(Cl)c1)c1cnn(-c2cncc(C(F)(F)F)n2)c1` [Example 128, (S)—N-(3-Chloro-4-(morpholin-2-yl)phenyl)-1-(6-(trifluoromethyl)pyrazin-2-yl)-1H-pyrazole-4-carboxamide hydrochloride], the Ki was found to be 0.0088 µM in test [1] and 0.0025 µM in test [2].

Take `Cc1cc(C(=O)Nc2ccc([C@H]3CNCCO3)c(F)c2)cc(C#N)n1` [Example 115, (S)-2-Cyano-N-(3-fluoro-4-(morpholin-2-yl)phenyl)-6-methylisonicotinamide hydrochloride]: the Ki in test [1] turned out to be 0.029 µM; in test [2], 0.0343 µM.

For `N#Cc1cc(Cl)cc(C(=O)Nc2ccc([C@H]3CNCCO3)c(F)c2)n1` [Example 133, (S)-4-Chloro-6-cyano-N-(3-fluoro-4-(morpholin-2-yl)phenyl)picolinamide hydrochloride], the Ki in test [1] was found to be 0.0095 µM; in test [2], 0.018 µM.

As for `N#Cc1cccc(NC(=O)Nc2ccc([C@@H]3CNCCO3)cc2F)c1` [Example 3, 1-(3-Cyano-phenyl)-3-((R)-2-fluoro-4-morpholin-2-yl-phenyl)-urea], the Ki in test [1] was 0.0016 µM; in test [2] it was 0.0015 µM.

With `O=C(Nc1ccc(C(F)(F)F)cn1)Nc1ccc([C@@H]2CNCCO2)cc1Cl` [Example 54, (R)-1-(2-Chloro-4-(morpholin-2-yl)phenyl)-3-(5-(trifluoromethyl)pyridin-2-yl)urea], the Ki in test [1] was 0.003 µM; in test [2] it was 0.0018 µM.

For `O=C(Nc1ccc([C@@H]2CNCCO2)c(F)c1)c1cnn(-c2ccc(OC(F)F)cc2)c1` [Example 86, (R)-1-(4-(Difluoromethoxy)phenyl)-N-(3-fluoro-4-(morpholin-2-yl)phenyl)-1H-pyrazole-4-carboxamide hydrochloride], the values for the Ki in test [1] and in test [2] were 0.0023 µM and 0.0007 µM, respectively.

Take `N#Cc1cc(NC(=O)Nc2ccc([C@H]3CNCCO3)cc2F)ccc1F` [Example 27, 1-(3-Cyano-4-fluoro-phenyl)-3-((S)-2-fluoro-4-morpholin-2-yl-phenyl)-urea]: the Ki was found to be 0.0028 µM in test [1] and 0.0038 µM in test [2].

On to `N#Cc1ccc(NC(=O)Nc2ccc([C@H]3CNCCO3)cc2Br)cn1` [Example 66, (S)-1-(2-bromo-4-(morpholin-2-yl)phenyl)-3-(6-cyanopyridin-3-yl)urea], for which the Ki in test [1] was 0.0033 µM; in test [2], 0.0161 µM.

As to `N#Cc1ccc(-n2cc(C(=O)Nc3ccc([C@H]4CNCCO4)c(F)c3)cn2)c(F)c1` [Example 108, (S)-1-(4-Cyano-2-fluorophenyl)-N-(3-fluoro-4-(morpholin-2-yl)phenyl)-1H-pyrazole-4-carboxamide hydrochloride], the Ki amounted to 0.0054 µM in test [1] and 0.0059 µM in test [2].

On to `O=C(Nc1ccc([C@H]2CNCCO2)cc1Cl)c1ccc(Cl)nc1` [Example 36, (S)-6-Chloro-N-(2-chloro-4-(morpholin-2-yl)phenyl)nicotinamide], for which the Ki in test [1] is 0.0139 µM; in test [2] it was 0.488 µM.

As for `COc1cc(C(=O)Nc2ccc([C@@H]3CNCCO3)cc2F)cc(Cl)n1` [Example 24, 2-Chloro-N—((R)-2-fluoro-4-morpholin-2-yl-phenyl)-6-methoxy-isonicotinamide], the Ki in test [1] turned out to be 0.0032 µM; in test [2], 0.007 µM.

In the case of `O=C(Nc1ccc([C@H]2CNCCO2)c(F)c1)c1cnn(-c2cncc(C(F)(F)F)n2)c1` [Example 127, (S)—N-(3-Fluoro-4-(morpholin-2-yl)phenyl)-1-(6-(trifluoromethyl)pyrazin-2-yl)-1H-pyrazole-4-carboxamide hydrochloride], the Ki in test [1] was 0.007 µM; in test [2], 0.0016 µM.

Regarding `O=C(Nc1ccc(Cl)cn1)Nc1ccc([C@@H]2CNCCO2)cc1Cl` [Example 55, (R)-1-(2-Chloro-4-(morpholin-2-yl)phenyl)-3-(5-chloropyridin-2-yl)urea], the Ki in test [1] turned out to be 0.0012 µM; in test [2], 0.0014 µM.

As for `O=C(Nc1ccc(Cl)nc1)Nc1ccc(C2CCCNC2)cc1Cl` (racemic) [Example 41], the Ki in test [1] came to 0.0015 µM; in test [2], 0.009 µM.

On to `COc1cc(C(=O)Nc2ccc([C@H]3CNCCO3)cc2F)cc(C(N)=O)n1` [Example 120, (S)—N4-(2-Fluoro-4-(morpholin-2-yl)phenyl)-6-methoxypyridine-2,4-dicarboxamide hydrochloride], for which the results for the Ki in test [1] and in test [2] were 0.0851 µM and 0.426 µM, respectively.

On to `N#Cc1ccc(-n2cc(C(=O)Nc3ccc([C@H]4CNCCO4)c(Cl)c3)cn2)cc1` [Example 105, (S)—N-(3-Chloro-4-(morpholin-2-yl)phenyl)-1-(4-cyanophenyl)-1H-pyrazole-4-carboxamide hydrochloride], for which the Ki amounted to 0.0032 µM in test [1] and 0.0027 µM in test [2].

Take `O=C(Nc1ccc(Cl)nc1)Nc1ccc([C@@H]2CNCCO2)cc1F` [Example 8, 1-(6-Chloro-pyridin-3-yl)-3-((R)-2-fluoro-4-morpholin-2-yl-phenyl)-urea]: the Ki in test [1] is 0.0026 µM; in test [2], 0.0039 µM.

As to `N#Cc1ccc(-n2cc(C(=O)Nc3ccc([C@H]4CNCCO4)cc3F)cn2)c(F)c1` [Example 110, (S)-1-(4-Cyano-2-fluorophenyl)-N-(2-fluoro-4-(morpholin-2-yl)phenyl)-1H-pyrazole-4-carboxamide hydrochloride], the results for the Ki in test [1] and in test [2] were 0.0088 µM and 0.0152 µM, respectively.

Take `COc1cc(C(=O)Nc2ccc([C@H]3CNCCO3)cc2F)cc(Cl)n1` [Example 25, 2-Chloro-N—((S)-2-fluoro-4-morpholin-2-yl-phenyl)-6-methoxy-isonicotinamide]: the Ki in test [1] was 0.0034 µM; in test [2], 0.0127 µM.

As to `O=C(Nc1ccc([C@H]2CNCCO2)cc1F)c1cnn(-c2cccc(OC(F)F)c2)c1` [Example 75, (S)-1-(3-(Difluoromethoxy)phenyl)-N-(2-fluoro-4-(morpholin-2-yl)phenyl)-1H-pyrazole-4-carboxamide], the Ki in test [1] was 0.0014 µM; in test [2], 0.0011 µM.

For the compound `CCOc1ccc(C(=O)Nc2ccc([C@@H]3CNCCO3)c(F)c2)cn1` [Example 85, (R)-6-Ethoxy-N-(3-fluoro-4-(morpholin-2-yl)phenyl)nicotinamide hydrochloride], the Ki in test [1] came out at 0.0033 µM; in test [2], 0.0067 µM.

Regarding `N#Cc1cccc(NC(=O)Nc2ccc([C@@H]3CNCCO3)cc2F)c1F` [Example 62, (R)-1-(3-Cyano-2-fluorophenyl)-3-(2-fluoro-4-(morpholin-2-yl)phenyl)urea], the Ki in test [1] was determined as 0.0031 µM; in test [2] it was 0.0028 µM.
